# Results: BindingDB's records for doi:10.1021/jm058205b (Johnson & Johnson Pharmaceutical, 2005)
# Biological target: Vascular endothelial growth factor receptor 2 (Rattus norvegicus, UniProt O08775)
# Test: Kinase Inhibition Assay
# Conditions: not given
# Description: (§1) The enzyme was assayed with a biotinylated peptide substrate and test compounds in the presence of 5 uM ATP/[gamma-33P]ATP in a streptavidin coated FlashPlate (Perkin-Elmer, Boston, MA). Inhibition of the enzymatic activity due to the compound was measured by observing a reduced amount of 33P-gamma-ATP incorporated into the immobilized peptide relative to untreated controls. Linear regression analysis of the percent of inhibition by the test compound was used to calculate IC50 values.
# Vascular endothelial growth factor receptor 2, sequence (O08775 whole entry): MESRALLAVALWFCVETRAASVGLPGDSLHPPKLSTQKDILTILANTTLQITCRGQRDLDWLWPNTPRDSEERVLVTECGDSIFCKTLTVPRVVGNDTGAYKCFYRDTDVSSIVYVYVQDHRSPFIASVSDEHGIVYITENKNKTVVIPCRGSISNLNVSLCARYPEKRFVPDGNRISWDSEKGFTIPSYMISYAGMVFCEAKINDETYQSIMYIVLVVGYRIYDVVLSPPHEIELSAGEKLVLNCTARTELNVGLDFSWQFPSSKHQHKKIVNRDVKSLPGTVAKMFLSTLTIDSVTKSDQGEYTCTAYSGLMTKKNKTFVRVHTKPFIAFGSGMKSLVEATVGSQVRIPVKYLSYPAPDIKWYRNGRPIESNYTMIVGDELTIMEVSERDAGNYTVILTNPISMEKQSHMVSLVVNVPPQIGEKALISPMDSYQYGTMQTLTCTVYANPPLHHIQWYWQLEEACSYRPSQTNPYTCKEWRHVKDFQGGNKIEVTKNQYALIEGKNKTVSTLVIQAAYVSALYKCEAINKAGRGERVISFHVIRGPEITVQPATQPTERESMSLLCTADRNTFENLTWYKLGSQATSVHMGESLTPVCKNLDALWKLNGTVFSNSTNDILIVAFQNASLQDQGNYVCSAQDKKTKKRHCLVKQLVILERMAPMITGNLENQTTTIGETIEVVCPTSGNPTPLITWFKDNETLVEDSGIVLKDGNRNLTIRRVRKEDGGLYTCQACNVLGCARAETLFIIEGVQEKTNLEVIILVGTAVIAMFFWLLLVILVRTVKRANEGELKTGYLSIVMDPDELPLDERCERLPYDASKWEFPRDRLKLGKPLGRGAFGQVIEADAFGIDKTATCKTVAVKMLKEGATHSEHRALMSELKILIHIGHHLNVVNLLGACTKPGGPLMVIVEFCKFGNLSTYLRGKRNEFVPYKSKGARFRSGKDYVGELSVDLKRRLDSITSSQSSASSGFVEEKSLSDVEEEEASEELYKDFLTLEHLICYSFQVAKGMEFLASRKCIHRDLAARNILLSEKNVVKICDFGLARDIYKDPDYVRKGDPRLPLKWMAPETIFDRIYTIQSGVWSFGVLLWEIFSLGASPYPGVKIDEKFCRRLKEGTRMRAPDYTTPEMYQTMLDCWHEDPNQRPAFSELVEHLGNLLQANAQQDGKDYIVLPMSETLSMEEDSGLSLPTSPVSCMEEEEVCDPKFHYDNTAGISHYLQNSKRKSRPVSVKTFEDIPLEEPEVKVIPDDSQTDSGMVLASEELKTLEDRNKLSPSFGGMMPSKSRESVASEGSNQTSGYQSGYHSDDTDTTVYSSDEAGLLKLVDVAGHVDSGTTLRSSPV
row,IC50 [µM],SMILES
1,> 10,CN(C)c1ccc(C(=O)Nc2cncc(-c3cncc(Nc4cccc(Cl)c4)n3)c2)cc1 [N-(5-{6-[(3-chlorophenyl)amino]pyrazin-2-yl}pyridin-3-yl)-4-(dimethylamino)benzamide]

# Biological target: Cyclin-dependent kinase/G2/mitotic-specific cyclin- 1 (Homo sapiens, UniProt P06493)
# Test: Kinase Inhibition Assay
# Conditions: not given
# Description: as §1
# Cyclin-dependent kinase/G2/mitotic-specific cyclin- 1, sequence (P06493 whole entry): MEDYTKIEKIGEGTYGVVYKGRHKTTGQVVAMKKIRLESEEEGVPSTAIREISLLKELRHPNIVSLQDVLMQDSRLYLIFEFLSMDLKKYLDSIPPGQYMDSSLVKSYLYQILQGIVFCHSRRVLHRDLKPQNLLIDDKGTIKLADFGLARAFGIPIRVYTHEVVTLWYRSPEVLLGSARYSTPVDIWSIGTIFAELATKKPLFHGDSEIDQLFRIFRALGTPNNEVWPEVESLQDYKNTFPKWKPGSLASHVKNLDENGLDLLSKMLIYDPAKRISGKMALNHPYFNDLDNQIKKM
# Cyclin-dependent kinase/G2/mitotic-specific cyclin- 1, sequence (P14635 whole entry, further chain): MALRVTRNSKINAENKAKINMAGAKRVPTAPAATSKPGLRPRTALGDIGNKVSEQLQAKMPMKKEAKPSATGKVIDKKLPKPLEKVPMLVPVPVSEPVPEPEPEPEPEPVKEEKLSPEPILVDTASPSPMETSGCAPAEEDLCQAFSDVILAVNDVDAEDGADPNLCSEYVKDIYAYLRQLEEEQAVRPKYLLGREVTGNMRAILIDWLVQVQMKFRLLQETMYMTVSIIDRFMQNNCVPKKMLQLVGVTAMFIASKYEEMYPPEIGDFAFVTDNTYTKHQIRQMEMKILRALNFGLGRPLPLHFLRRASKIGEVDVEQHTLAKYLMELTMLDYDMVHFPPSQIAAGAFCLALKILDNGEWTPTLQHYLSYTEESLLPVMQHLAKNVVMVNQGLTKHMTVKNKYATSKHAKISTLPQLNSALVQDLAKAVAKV
row,IC50 [µM],SMILES
1,> 10,Clc1cccc(Nc2cncc(-c3cncc(NCCCn4cccn4)c3)n2)c1 [N-(3-Chlorophenyl)-6-[5-[[3-(1H-pyrazol-1-yl)propyl]-amino]-3-pyridinyl]-2-pyrazinamine]
2,> 10,COCC(=O)Nc1cncc(-c2cncc(Nc3cccc(Cl)c3)n2)c1 [N-{5-[6-(3-Chloro-phenylamino)-pyrazin-2-yl]-pyridin-3-yl}-2-methoxy-acetamide]
3,> 10,COCCC(=O)Nc1cncc(-c2cncc(Nc3cccc(Cl)c3)n2)c1 [N-(5-{6-[(3-chlorophenyl)amino]pyrazin-2-yl}pyridin-3-yl)-3-methoxypropanamide]
4,> 10,Clc1cccc(Nc2cncc(-c3cncc(NCCCN4CCOCC4)c3)n2)c1 [N-[5-[6-[(3-Chlorophenyl)amino]pyrazinyl]-3-pyridinyl]-4-morpholinepropanamine]
5,> 10,Clc1cccc(Nc2cncc(-c3cncc(NCCCc4ccccc4)c3)n2)c1 [N-(3-chlorophenyl)-6-{5-[(3-phenylpropyl)amino]pyridin-3-yl}pyrazin-2-amine]
6,> 10,Nc1ncc(NCCCO)cc1-c1cncc(Nc2cccc(Cl)c2)n1 [3-[(6-amino-5-{6-[(3-chlorophenyl)amino]pyrazin-2-yl}pyridin-3-yl)amino]propan-1-ol]
7,> 10,O=C(COCc1ccccc1)Nc1cncc(-c2cncc(Nc3cccc(Cl)c3)n2)c1 [N-{5-[6-(3-Chloro-phenylamino)-pyrazin-2-yl]-pyridin-3-yl}-2-benzyloxy-acetamide]
8,> 10,CN(C)c1ccc(C(=O)Nc2cncc(-c3cncc(Nc4cccc(Cl)c4)n3)c2)cc1 [N-(5-{6-[(3-chlorophenyl)amino]pyrazin-2-yl}pyridin-3-yl)-4-(dimethylamino)benzamide]
9,> 10,"Clc1cccc(Nc2cncc(-c3cncc(NCCCn4cncn4)c3)n2)c1 [N-(3-chlorophenyl)-6-(5-{[3-(1H-1,2,4-triazol-1-yl)propyl]amino}pyridin-3-yl)pyrazin-2-amine]"
10,> 10,CN1CCN(CCCNc2cncc(-c3cncc(Nc4cccc(Cl)c4)n3)c2)CC1 [N-(3-chlorophenyl)-6-(5-{[3-(4-methylpiperazin-1-yl)propyl]amino}pyridin-3-yl)pyrazin-2-amine]
11,> 10,"CN(C)CCNc1cncc(-c2cncc(Nc3cccc(Cl)c3)n2)c1 [N-{5-[6-(3-Chloro-phenylamino)-pyrazin-2-yl]-pyridin-3-yl}-N ,N -dimethyl-ethane-1,2-diamine]"
12,> 10,OCCNc1cncc(-c2cncc(Nc3cccc(Cl)c3)n2)c1 [2-{5-[6-(3-Chloro-phenylamino)-pyrazin-2-yl]-pyridin-3-ylamino}-ethanol]
13,> 10,O=C(NCCCO)c1cncc(-c2cncc(Nc3cccc(Cl)c3)n2)c1 [5-[6-(3-Chloro-phenylamino)-pyrazin-2-yl]-N-(3-hydroxy-propyl)-nicotinamide]
14,> 10,O=C(CCCNc1cncc(-c2cncc(Nc3cccc(Cl)c3)n2)c1)N1CCCCC1 [4-[(5-{6-[(3-chlorophenyl)amino]pyrazin-2-yl}pyridin-3-yl)amino]-1-(piperidin-1-yl)butan-1-one]
15,> 10,Clc1cccc(Nc2cncc(-c3cncc(NCC4CCOCC4)c3)n2)c1 [N-(3-chlorophenyl)-6-{5-[(oxan-4-ylmethyl)amino]pyridin-3-yl}pyrazin-2-amine]
16,> 10,OCCCNc1cnc(F)c(-c2cncc(Nc3cccc(Cl)c3)n2)c1 [3-{5-[6-(3-Chloro-phenylamino)-pyrazin-2-yl]-6-fluoropyridin-3-ylamino}-propan-1-ol]
17,> 10,CN(C)CCCNc1cncc(-c2cncc(Nc3cccc(Cl)c3)n2)c1 [N-(3-chlorophenyl)-6-(5-{[3-(dimethylamino)propyl]amino}pyridin-3-yl)pyrazin-2-amine]
18,> 10,OCCCCNc1cncc(-c2cncc(Nc3cccc(Cl)c3)n2)c1 [4-[(5-{6-[(3-chlorophenyl)amino]pyrazin-2-yl}pyridin-3-yl)amino]butan-1-ol]
19,> 10,O=C(CO)Nc1cncc(-c2cncc(Nc3cccc(Cl)c3)n2)c1 [N-{5-[6-(3-Chloro-phenylamino)-pyrazin-2-yl]-pyridin-3-yl}-2-hydroxy-acetamide]

row,SMILES,IC50 [µM]
1,OCCCNc1cnc(Cl)c(-c2cncc(Nc3cccc(Cl)c3)n2)c1 [3-[(6-chloro-5-{6-[(3-chlorophenyl)amino]pyrazin-2-yl}pyridin-3-yl)amino]propan-1-ol],> 10
2,OCCCNc1cncc(-c2cncc(Nc3cccc(Cl)c3)n2)c1 [3-[[5-[6-[(3-chlorophenyl)amino]pyrazinyl]-3-pyridinyl]amino]-1-propanol],> 10
3,O=C(COc1ccccc1)Nc1cncc(-c2cncc(Nc3cccc(Cl)c3)n2)c1 [N-{5-[6-(3-Chloro-phenylamino)-pyrazin-2-yl]-pyridin-3-yl}-2-phenoxy-acetamide],> 10
4,Clc1cccc(Nc2cncc(-c3cncc(NCCOc4ccccc4)c3)n2)c1 [(3-Chloro-phenyl)-{6-[5-(2-phenoxy-ethylamino)-pyridin-3-yl]-pyrazin-2-yl}-amine],> 10

# Same assay, conditions: pH 8; 30 °C
row,IC50 [µM],SMILES
1,> 10,OCCCNc1cncc(-c2cncc(NCc3ccccc3)n2)c1 [3-[5-(6-Benzylamino-pyrazin-2-yl)-pyridin-3-yl-amino]-propan-1-ol]
2,> 10,OCCCNc1cncc(-c2cncc(Nc3ccccc3Cl)n2)c1 [3-{5-[6-(2-Chloro-phenylamino)-pyrazin-2-yl]-pyridin-3-ylamino}-propan-1-ol]
3,> 10,Clc1cccc(Nc2cncc(-c3cncc(NCCCc4ccncc4)c3)n2)c1 [N-(3-chlorophenyl)-6-(5-{[3-(pyridin-4-yl)propyl]amino}pyridin-3-yl)pyrazin-2-amine]
4,> 10,Clc1ccc(Nc2cncc(-c3cncc(NCCCc4ccncc4)c3)n2)cc1 [(4-Chloro-phenyl)-{6-[5-(3-pyridin-4-yl-propylamino)pyridin-3-yl]-pyrazin-2-yl}-amine]
5,> 10,COc1cccc(Nc2cncc(-c3cncc(NCCCO)c3)n2)c1 [3-[[5-[6-[(3-Methoxyphenyl)amino]pyrazinyl]-3-pyridinyl]-1-propanol]
6,> 10,OCCCNc1cncc(-c2cncc(Nc3cccc(F)c3)n2)c1 [3-[(5-{6-[(3-fluorophenyl)amino]pyrazin-2-yl}pyridin-3-yl)amino]propan-1-ol]
7,> 10,OCCCNc1cncc(-c2cncc(Oc3cccc(Cl)c3)n2)c1 [3-({5-[6-(3-chlorophenoxy)pyrazin-2-yl]pyridin-3-yl}amino)propan-1-ol]
8,> 10,Nc1cncc(-c2cncc(Nc3cccc(Cl)c3)n2)c1 [[6-(5-Amino-pyridin-3-yl)-pyrazin-2-yl]-(3-chloro-phenyl)-amine]
9,> 10,"Clc1ccc(Nc2cncc(-c3cncc(NCCCc4ccncc4)c3)n2)cc1Cl [N-(3,4-dichlorophenyl)-6-(5-{[3-(pyridin-4-yl)propyl]amino}pyridin-3-yl)pyrazin-2-amine]"

# Biological target: T1, Glycogen synthase kinase-3 beta [7-25] (Oryctolagus cuniculus, UniProt G1T8E2)
# T1 construct: 7-25
# Test: Kinase Inhibition Assay
# Conditions: not given
# Description: as §1
row,IC50 [µM],SMILES
1,> 10,"CN(C)CCNc1cncc(-c2cncc(Nc3cccc(Cl)c3)n2)c1 [N-{5-[6-(3-Chloro-phenylamino)-pyrazin-2-yl]-pyridin-3-yl}-N ,N -dimethyl-ethane-1,2-diamine]"

# Biological target: Platelet-derived growth factor receptor beta (Homo sapiens, UniProt P09619)
# Test: Kinase Inhibition Assay
# Conditions: not given
# Description: as §1
# Platelet-derived growth factor receptor beta, sequence (P09619 whole entry): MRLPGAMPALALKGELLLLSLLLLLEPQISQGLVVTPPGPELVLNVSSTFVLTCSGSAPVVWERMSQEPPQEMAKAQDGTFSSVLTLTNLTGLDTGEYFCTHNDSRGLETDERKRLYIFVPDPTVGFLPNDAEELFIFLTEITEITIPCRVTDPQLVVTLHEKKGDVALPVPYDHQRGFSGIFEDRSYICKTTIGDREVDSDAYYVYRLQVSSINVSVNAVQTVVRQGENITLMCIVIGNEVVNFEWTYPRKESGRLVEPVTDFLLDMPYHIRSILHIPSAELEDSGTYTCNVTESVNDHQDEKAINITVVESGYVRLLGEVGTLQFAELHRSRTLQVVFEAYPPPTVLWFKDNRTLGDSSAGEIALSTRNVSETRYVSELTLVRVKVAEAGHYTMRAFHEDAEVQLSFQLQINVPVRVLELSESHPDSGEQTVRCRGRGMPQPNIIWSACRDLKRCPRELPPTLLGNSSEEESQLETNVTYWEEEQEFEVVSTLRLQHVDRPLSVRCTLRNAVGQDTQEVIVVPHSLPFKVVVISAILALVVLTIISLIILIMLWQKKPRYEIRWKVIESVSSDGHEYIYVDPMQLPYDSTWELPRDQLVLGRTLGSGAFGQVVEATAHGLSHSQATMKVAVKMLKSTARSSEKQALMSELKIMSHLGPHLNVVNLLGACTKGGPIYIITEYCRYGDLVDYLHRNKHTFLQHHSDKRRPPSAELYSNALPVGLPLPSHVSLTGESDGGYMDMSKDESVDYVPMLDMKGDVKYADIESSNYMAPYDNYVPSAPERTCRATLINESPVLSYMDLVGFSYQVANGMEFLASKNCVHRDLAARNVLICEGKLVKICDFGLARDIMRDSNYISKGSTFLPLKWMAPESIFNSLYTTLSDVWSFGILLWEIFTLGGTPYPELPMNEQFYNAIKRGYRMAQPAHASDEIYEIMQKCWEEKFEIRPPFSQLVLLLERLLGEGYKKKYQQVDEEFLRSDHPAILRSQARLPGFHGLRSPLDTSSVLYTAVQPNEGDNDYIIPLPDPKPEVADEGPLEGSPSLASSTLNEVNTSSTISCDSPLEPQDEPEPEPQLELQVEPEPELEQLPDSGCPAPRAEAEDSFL
row,IC50 [µM],SMILES
1,> 10,"CN(C)CCNc1cncc(-c2cncc(Nc3cccc(Cl)c3)n2)c1 [N-{5-[6-(3-Chloro-phenylamino)-pyrazin-2-yl]-pyridin-3-yl}-N ,N -dimethyl-ethane-1,2-diamine]"
